pIC50: −log10 of the molar value.
Columns and labels:
[1] = target: T1, iCasp9 in CAR T cells directed against desmoglein-3 (Homo sapiens, UniProt P55211+P62942, F37V); assay: Caspase activation / killing of iCasp9 CAR T cells by AP20187; assay type: cell-based; conditions: T cells transduced with CARs containing iCasp9; read-out: IC50 (fraction of dead cells)
T1 construct: expressed in transfected cells; host or cells: T cells
Description: (§1) The iCasp9 system has been previously incorporated into CAR T cells directed against desmoglein-3 by others for studying pemphigus. T cells were transduced with two different CARs containing iCasp9 (iC9) and one CAR without iC9. The inducible caspase 9 was activated by treatment with varying concentrations of AP20187, a chemical inducer of dimerization which is an analog of AP1903 (FIG. 9). Of note is that the fraction of dead cells is less than 100% because not all of the cells were transduced. The IC50 of AP20187 is <0.1 nM. Nontransduced cells (NTD) and cells without iC9 were not killed by AP20187.

[2] = test system: iCasp9 in CAR T cells directed against desmoglein-3; assay: as above; assay type: cell-based; conditions: nontransduced cells (NTD) and cells without iC9
Description: as §1

[3] = target: F36V-FKBP (Homo sapiens, UniProt P62942, F37V); conditions: cited from earlier work; for binding to mutant F36V-FKBP relative to the wild-type protein: F36V-FKBP versus wild-type FKBP
[4] = test system: iCasp9 modified T cells; conditions: cited from earlier work
[5] = target: T2, MDA-MB231 cells transduced with DHFR-iCasp9 (Escherichia coli, UniProt P0ABQ4); conditions: for activation of the DHFR-iCasp9 suicide gene: MDA-MB231 cells transduced with DHFR-15-iCasp9 or DHFR-18-iCasp9
T2 sequence (P0ABQ4 1-159): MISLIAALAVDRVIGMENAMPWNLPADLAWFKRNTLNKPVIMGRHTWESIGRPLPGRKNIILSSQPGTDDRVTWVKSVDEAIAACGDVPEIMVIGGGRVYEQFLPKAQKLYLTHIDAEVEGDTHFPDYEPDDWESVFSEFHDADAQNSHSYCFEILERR
T2 sequence (P55211 135-416 partner): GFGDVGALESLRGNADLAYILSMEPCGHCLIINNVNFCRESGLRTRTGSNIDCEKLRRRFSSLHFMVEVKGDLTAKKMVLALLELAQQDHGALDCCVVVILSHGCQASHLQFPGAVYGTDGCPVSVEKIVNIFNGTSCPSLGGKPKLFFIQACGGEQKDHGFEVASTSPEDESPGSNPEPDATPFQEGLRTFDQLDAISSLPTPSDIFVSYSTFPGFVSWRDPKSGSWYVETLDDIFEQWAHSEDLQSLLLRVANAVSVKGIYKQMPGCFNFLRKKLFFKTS
Method: (§2) Procedure for DHFR-iCasp9 Cell Kill Assay with Bis-TMP Compounds: • Cell culture • Cell lines (MDA-MB231-luc transduced with DHFR-icasp9 with different linker lengths) were cultured in DMEM (Gibco) with 10% fetal bovine serum (Sigma), 100 U/mL penicillin and 100 ug/mL streptomycin (Invitrogen). • Incubation is done at 37° C. with 5% CO2 • Cell assay • Cells were plated on 96 well black plate, 3×10^4 cells/well. • The next day, cells were treated with varying concentrations of Bis-TMP compounds (Bis-TMP-#). • Cells were incubated for 24 hours and luciferin was added (120 ug/mL), after which bioluminescence was measured using Perkin Elmer Enspire Multi-mode Plate reader. Luminescence Assay with HCT116-L106P-tsLuc Cells Following Treatment with Shield-1 Compounds: • Day 1: Plate 50,000 cells/50 uL/well on 96 well black plate. • Day 2: • Add compounds (FP-Shield-1, control Shield-1 in 50 uL volume). • Incubate for 24 h at 37° C. with CO2. • Day 3: Add luciferin and read immediately.

[6] = test system: luciferase fused to the FKBP12 L106P destabilizing domain (L106P-tsLuc); assay: Luminescence assay with HCT116-L106P-tsLuc cells; assay type: cell-based; conditions: HCT116 cells expressing L106P-tsLuc, 3 nM to 10 uM
Method: as §2

[7] = test system: LID system (F36V-FKBP with degron) fused to CAR in T cells; conditions: preclinical studies; cited from earlier work

SMILES: CC[C@H](C(=O)N1CCCC[C@H]1C(=O)O[C@H](CCc1ccc(OC)c(OC)c1)c1cccc(OCC(=O)NCC(CNC(=O)COc2cccc([C@@H](CCc3ccc(OC)c(OC)c3)OC(=O)[C@@H]3CCCCN3C(=O)[C@@H](CC)c3cc(OC)c(OC)c(OC)c3)c2)CN(C)C)c1)c1cc(OC)c(OC)c(OC)c1 [AP20187]
- pIC50 [1]: > 10.00
- killing of control cells [2]: not killed

SMILES: CC[C@H](C(=O)N1CCCC[C@H]1C(=O)O[C@H](CCc1ccc(OC)c(OC)c1)c1cccc(OCC(=O)NCCNC(=O)COc2cccc([C@@H](CCc3ccc(OC)c(OC)c3)OC(=O)[C@@H]3CCCCN3C(=O)[C@@H](CC)c3cc(OC)c(OC)c(OC)c3)c2)c1)c1cc(OC)c(OC)c(OC)c1 [AP1903]
- binding to mutant F36V-FKBP relative to the wild-type protein [3]: greater than three orders of magnitude
- adverse events in humans ([4]; given to humans): without any reported serious adverse events
- modified T cells eliminated ([4]; patients with GVHD, single dose, within 30 min after administration): more than 90%
- graft-versus-host disease outcome ([4]; patients with GVHD, single dose): terminated without abrogating immune reconstitution

SMILES: COc1cc(Cc2cnc(N)nc2N)cc(OC)c1OCCCCC(=O)NCCCOCCCNC(=O)CCCCOc1c(OC)cc(Cc2cnc(N)nc2N)cc1OC [Bis-TMP-21, N,N′-(oxybis(propane-3,1-diyl))bis(5-(4-((2,4-diaminopyrimidin-5-yl)methyl)-2,6-dimethoxyphenoxy)pentanamide)]
- activation of the DHFR-iCasp9 suicide gene [5]: potent activation of the DHFR-iCasp9 suicide gene at low nM concentrations

SMILES: COc1cc(Cc2cnc(N)nc2N)cc(OC)c1OCCCCC(=O)NCCCOCCOCCOCCCNC(=O)CCCCOc1c(OC)cc(Cc2cnc(N)nc2N)cc1OC [Bis-TMP-27, N,N′-(((oxybis(ethane-2,1-diyl))bis(oxy))bis(propane-3,1-diyl))bis(5-(4-((2,4-diaminopyrimidin-5-yl)methyl)-2,6-dimethoxyphenoxy)pentanamide)]
- activation of the DHFR-iCasp9 suicide gene [5]: potent activation of the DHFR-iCasp9 suicide gene at low nM concentrations
- cells killed ([5]; MDA-MB231 cells transduced with DHFR-18-iCasp9, 24 hours): ~ 70%
- pIC50 ([5]; read-out: IC50 of cell killing, MDA-MB231 cells transduced with DHFR-18-iCasp9, 24 hours): ~8.30

SMILES: CC[C@H](C(=O)N1CCCC[C@H]1C(=O)O[C@H](CCc1ccc(OC)c(OC)c1)c1cccc(OCCN2CCOCC2)c1)c1cc(OC)c(OC)c(OC)c1 [Shield-1]
- protein stabilization (luminescence) [6]: equivalent protein stabilization when compared to the literature
- binding to mutant F36V-FKBP relative to the wild-type protein [3]: greater than three orders of magnitude
- pIC50 ([3]; read-out: IC50 for the mutant protein F36V-FKBP): 8.48
- IC50 for control of CAR expression [7]: in the nM range

Source: patent publication US12697403B2, “Small molecules for dual function positron emission tomography (PET) and cell suicide switches” (THE TRUSTEES OF THE UNIVERSITY OF PENNSYLVANIA, priority 2017, dated 2026)
